Experimental data taken from US12037324B2, “Biarylmethyl heterocycles” (Université de Montréal, priority 2016, dated 2024).

Legend:
Format in all cases: cell-based
hAT1R = biological target: T1, hAT1R (Homo sapiens, UniProt P30556); experiment: BRET β-arrestin2 biosensor assay, higher receptor expression (hAT1R 5 ng/well), HEK293 cells; details: for EC50: High AT1R Expression
T1 sequence (P30556 1-359): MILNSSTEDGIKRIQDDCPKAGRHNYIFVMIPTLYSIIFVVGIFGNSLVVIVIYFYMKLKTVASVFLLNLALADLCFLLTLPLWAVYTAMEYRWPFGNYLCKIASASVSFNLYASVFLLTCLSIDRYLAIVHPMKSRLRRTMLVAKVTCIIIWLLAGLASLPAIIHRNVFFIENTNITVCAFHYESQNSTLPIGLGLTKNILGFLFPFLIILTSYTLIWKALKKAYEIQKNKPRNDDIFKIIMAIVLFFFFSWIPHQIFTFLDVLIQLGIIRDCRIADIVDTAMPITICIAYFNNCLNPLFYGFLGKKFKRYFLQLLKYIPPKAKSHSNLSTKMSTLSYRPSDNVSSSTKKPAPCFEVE

AGTR1 [1] = biological target: T2, AGTR1 (Homo sapiens, UniProt P30556); experiment: DiscoveRx β-arrestin2 recruitment assay (enzyme complementation, Pathunter CHO-K1 AGTR1 β-arrestin cell line); details: DiscoveRx β-arrestin2 recruitment; for DiscoveRx β-arrestin2 Ymax (%): maximal response
T2 construct: host or cells: Pathunter CHO-K1 AGTR1 β-arrestin cell line (CHO-K1)
T2 sequence (P30556 1-359): T1 sequence (P30556 1-359)
Experimental: In one aspect of the invention, signaling bias of compounds was assessed by comparing the relative activity of compounds to activate both the β-arrestin and Gq signaling pathways. In order to confirm signaling bias, compounds were studied in two different assay formats. DiscoveRx β-arrestin2 Recruitment and IP1 Assays β-arrestin2 recruitment to activated receptors can be assessed using an enzyme complementation method (Zhao, Jones et al. 2008). […] Cells (5000/well) were plated into 1536 well plates (Cellocoat plates, Greiner Bio One, Monroe, NC) 14-16 hours before each experiment in 20 μl DMEM/F12 medium (Thermo-Fisher Scientific, Carlsbad, CA) containing heat-inactivated 1% fetal bovine serum. Subsequently, the compounds of interest were added at varying concentrations to the wells in a volume of 200 nl and the cells incubated for 90 min at 37° C. The detection reagent (10 μl) was added to each well and the plates incubated at room temperature for 1 hour before measurement of chemiluminescence using an EnVision Multilabel Reader (Perkin-Elmer, Waltham, MA). The data are processed using Toolset for Runmaster QCMulti. Concentration-response curves are fitted and EC50s (agonist mode) and IC50s (antagonist mode) estimated using a 4-parameter logistic equation. Compound activities are reported as a relative percentage to the maximal effect of All in the assays.

AGTR1 [2] = biological target: T2, AGTR1; experiment: DiscoveRx IP1 accumulation assay (HTRF), agonist mode, Pathunter CHO-K1 AGTR1 β-arrestin cell line; details: for EC50: read-out: IP-1 EC50
Experimental: In one aspect of the invention, signaling bias of compounds was assessed by comparing the relative activity of compounds to activate both the β-arrestin and Gq signaling pathways. In order to confirm signaling bias, compounds were studied in two different assay formats.
DiscoveRx β-arrestin2 Recruitment and IP1 Assays
Gq activation can be assessed by measuring the accumulation of inositol phosphates (e.g. IP3, IP1) that are liberated following activation of phospholipase C by Gq (Thomsen, Frazer et al. 2005). In the current invention we have utilized the DiscoveRx Pathunter CHO-K1 AGTR1 β-arrestin cell line to also measure IP1 accumulation in response to compounds. IP1 accumulation was measured in both agonist and antagonist modes. In agonist mode, cells are plated as above 14-16 hours before the experiment. The medium is then removed and compounds at varying concentrations added in a final volume of 20 μl. The cells are incubated at 37° C. for 90 min. IP1 accumulation detected using a commercial HTRF assay according to manufacturer's instructions (Cisbio, Bedford, MA). Specifically, 4 μl of D2-conjugate solution (diluted 1:20 in Cisbio HTRF assay buffer) is added to each well, followed by the addition of 4 μl of anti-IP1 cryptate diluted 1:20 in HTRF assay buffer and the plates incubated for 20 min at room temperature. 14 μl from each well is measured using an Envision multi-label reader and data processed using Toolset for Runmaster QCMulti. Concentration-response curves are fitted and EC50s (agonist mode) and IC50s (antagonist mode) estimated using a 4-parameter logistic equation. Compound activities are reported as a relative percentage to the maximal effect of All in the assays.

Row | Structure (SMILES) | BRET β-Arrestin2 High AT1R Expression Ymax (%) (hAT1R) | EC50 (hAT1R) [nM] | EC50 (AGTR1 [1]) [nM] | DiscoveRx β-arrestin2 Ymax (%) (AGTR1 [1]) | IP-1 Ymax (%) (AGTR1 [2]) | EC50 (AGTR1 [2]) [nM]
1 | CCCCOC(=O)NS(=O)(=O)c1sc(-c2ccccc2)cc1-c1ccc(Cn2c(CC)nc3c(C)cc(C)nc32)cn1 [Example 50, Butyl (3-(5-((2-ethyl-5,7-dimethyl-3H-imidazo[4,5-b]pyridin-3-yl)methyl)pyridin-2-yl)-5-phenylthiophen-2-yl)sulfonylcarbamate] | 64.9 | 16.8 | 10.9 | 21.8 | 6.7 | 132
2 | CCc1nc2c(C)cc(C)nc2n1Cc1ccc(-c2cc(N3CCC(C)CC3)ccc2-c2nn[nH]n2)cc1 [Example 97, 2-ethyl-5,7-dimethyl-3-((5′-(4-methylpiperidin-1-yl)-2′-(2H-tetrazol-5-yl)-[1,1′-biphenyl]-4-yl)methyl)-3H-imidazo[4,5-b]pyridine] | 79.7 | 31.1 | 15.1 | 34.3 | 7.3 | 47.3
3 | CCCCC1=NC2(CCCC2)C(=O)N1Cc1ccc(-c2cc(-c3ccccc3CO)ccc2-c2nn[nH]n2)cc1 [Example 128] | 11.0 | 133 | 25.7 | 14.5 |  | > 100000
4 | CCCCC1=NC2(CCCC2)C(=O)N1Cc1ccc(-c2cc(Nc3ccccc3)ccc2-c2nn[nH]n2)cc1 [Example 99, 2-butyl-3-((5′-(phenylamino)-2′-(2H-tetrazol-5-yl)-[1,1′-biphenyl]-4-yl)methyl)-1,3-diazaspiro[4.4]non-1-en-4-one] | 9.6 | 144 | 32.4 | 6.3 |  | > 100000
5 | CCc1nc2c(C)cc(C)nc2n1Cc1ccc(-c2cc(Oc3cccc(Cl)c3)ccc2-c2nnn[nH]2)cc1 [Example 206] | 57.9 | 15.8 | 11.1 | 21.2 | 4.8 | 35.4
6 | CCc1nc2c(C)cc(C)nc2n1Cc1ccc(-c2cc(-c3ccccc3O)ccc2C(=O)O)cc1 [Example 184] | 85.9 | 14.7 | 31 | 51.2 | 12.0 | 110
7 | CCc1nc2c(C)cc(C)nc2n1Cc1ccc(-c2cc(Nc3ccccc3)ccc2-c2nn[nH]n2)cc1 [Example 93] | 82.8 | 7.5 | 7.9 | 32.6 | 5.4 | 21.2
8 | CCc1nc2c(C)cc(C)nc2n1Cc1ccc(-c2cc(-c3ccc4ncccc4c3)ccc2-c2nn[nH]n2)cc1 [Example 13] | 53.8 | 11.5 | 12.9 | 24.8 |  | > 1000
9 | CCCCC1=NC2(CCCC2)C(=O)N1Cc1ccc(-c2cc(-c3cscn3)ccc2-c2nn[nH]n2)cc1 [Example 137] | 12.2 | 35.3 | > 100000 |  |  | > 100000
10 | CCCCOC(=O)NS(=O)(=O)c1sc(-c2ccccc2C(F)(F)F)cc1-c1ccc(Cn2c(CC)nc3c(C)cc(C)nc32)cc1 [Example 45, Butyl (3-(4-((2-ethyl-5,7-dimethyl-3H-imidazo[4,5-b]pyridin-3-yl)methyl)phenyl)-5-(2-(trifluoromethyl)phenyl)thiophen-2-yl)sulfonylcarbamate] | 92.2 | 34.7 | 24.6 | 60.3 | 14.5 | 14.4
